Assay results taken from patent publication US10047383B2, “Bioproduction of chemicals” (Cargill, Incorporated, priority 2013, dated 2018).

Legend:
[1] = test system: E. coli strains; assay: Growth inhibition of E. coli strains grown in the presence of 3-HP; type: cell-based
[2] = test system: H. elongata ACCase; assay: Salt effect on ACCase from the halophile; type: biochemical, Halomonas elongata; conditions: FIG. 4, compared to the E. coli ACCase
Procedure: Concentrations of products were measured using the Nanodrop spectophotometer.

Compound	3-HP level at which growth inhibition has been demonstrated [1] [g/L]	effect of salt on H. elongata ACCase [2]
O=C(O)CCO [3-HP, 3-hydroxypropionic acid]	≥ 20	
N.O=C(O)CCO [NH4-3-HP]		less affected
Cl.N [NH4Cl, reference compound]		less affected
